For series [1] the following is noted: cited from earlier work; for stability: natural prostaglandins, T.O. Oesterling et al.
Series [2] has as its system indomethacin-induced ulcers. The series is described as follows: indomethacin-induced ulcer formation in rats (procedure of Lee et al.). The note with it: for Relative Potency ± S.E.M.: relative to 2-(3-hydroxy-3-methyloctyl)-5-oxocyclopentaneheptanoic acid, procedure of Example 1; for ED50: po. It counts as in vivo, rat. The text has this: The gastrointestinal side effect inhibiting property of the compositions of the present invention are demonstrable in standard pharmacological tests. For example, in procedures similar to the in vivo test described by Y. H. Lee et al., cited above, for evaluating the effects of a test compound on indomethacin-induced ulcers in the rat, the compounds of formula 1 are shown to be effective, see Examples 1 and 2.
By following the procedure of Lee et al., cited above, for the production of the indomethacin-induced ulcer in rats, the property of the compounds of formula 1 to inhibit such ulcers is readily demonstrable. More specifically: male albino rats (170 - 190 g; Sprague-Dawley strain, Canadian Breeding Laboratories), caged individually, were fasted 24 hr with free access to water until the start of the experiment. Indomethacin was given intraperitoneally. The animals were killed 5 hr later and the ulcer formation in the glandular portion of the stomach determined. The compound of formula 1 was administered perorally immediately after the indomethacin. The percent inhibition of ulcer formation versus the semilogarithm of the dose (mg/kg) was plotted and the dose at which 50% inhibition occurred (ED50) was read from the graph.
Analysis of variance and regression study were used in the evaluation of the data.
Indomethacin was administered (0.5 ml) as an aqueous suspension (2 drops of polysorbate 80 per 14 ml of H2 O). Polysorbate 80 is a mixture of sorbitol and its anhydrides copolymerized with ethylene oxide. The compounds of formula 1 were given (0.2 ml) in a 0.2% sodium carboxymethyl cellulose aqueous suspension.
The results of such a test for 2-(3-hydroxy-3-methyloctyl)-5-oxocyclopentaneheptanoic acid to inhibit the ulcer formation induced by 20 mg/kg i.p. of indomethacin are given in the following table. For comparative purposes the results obtained for propantheline bromide are also included.
By following the procedure of Example 1 the effects of compounds of formula 1 other than 2-(3-hydroxy-3-methyloctyl)-5-oxocyclopentaneheptanoic acid on indomethacin-induced ulcers are demonstrable. Accordingly, the results obtained with such other compounds of formula 1 are exemplified by the following list in which the relative potency of each compound with respect to 2-(3-hydroxy-3-methyloctyl)-5-oxocyclopentaneheptanoic acid is noted.

A further series relates to diarrhea. The series is described as follows: diarrhea in female mice or rats, peroral. The note with it: 60 minutes; for diarrheal effect: female mice, 240 mg/kg peroral. It counts as in vivo, mouse.
In another series the test system is diarrheal effect. The note with it: larger doses; Misiewicz et al. 1969; cited from earlier work.
Series [3] deals with gastric acid secretion. Conditions: W. Lippmann 1971; cited from earlier work.
The subject of series [4] is phenylbutazone-induced ulcers. The series is described as follows: phenylbutazone-induced ulcer formation in rats. It counts as in vivo, rat. Conditions: for % Inhibition of ulcer formation / Ulcers Formed, Mean ± S.E.M.: phenylbutazone 300 mg/kg p.o., 18 hr.
The subject of series [5] is gastric acid secretion. The series is described as follows: inhibition of gastric acid secretion in the rat (method of Lippmann). It counts as in vivo. The note with it: unit inferred, read-out: Ed50 for inhibiting gastric acid secretion. As for the experimental part:
A comparison of the ED50 for inhibiting indomethacin-induced ulcers and the ED50 for inhibiting gastric acid secretion for compounds of formula 1 is exemplified in the following list. Both ED50 's are determined in the rat. The ED50 for inhibiting indomethacin-induced ulcers is obtained according to the method of Example 1. The ED50 for inhibiting gastric acid secretion is obtained according to the method of Lippmann, cited above.

The test system of series [6] is indomethacin-induced ulcers. The note with it: cited from earlier work.
The subject of another series is ulcers. The note with it: man; N.O. Rothermich 1966; cited from earlier work.
Setting [7] is: Rattus norvegicus, indomethacin 20 mg/kg i.p., 5 hr, read-out: ED50 (dose at which 50% inhibition of ulcer formation occurred).
[8] abbreviates: 5 h, rat, method of Example 1 (dose in mg/kg there), unit inferred, read-out: ED50 for inhibiting indomethacin-induced ulcer.

Several values for one entry are separate records, joined by “and”; a condition that tells them apart may be missing. Identical values can stand only once. Like-named read-outs stand apart in the source and are kept apart here.

One may read the ED50 as the midpoint of the dose-response relation.

With `CCCCC[C@H](O)/C=C/[C@@H]1[C@@H](CCCCCCC(=O)O)[C@@H](O)C[C@H]1O` [PGF1α], the stability entry in [1] was “relatively unstable”.
For `CCCCCC(O)C=C[C@@H]1CCC(=O)[C@H]1C/C=C\CCCC(=O)O` (single isomer, unassigned) [trans,cis-7-[2-(3-Hydroxy-1-octenyl)-5-oxocyclopentyl]-5-hep] [trans,cis-7-[2-(3-Hydroxy-1-octenyl)-5-oxocyclopentyl]-5-heptenoic acid], in series [2], the “Relative Potency ± S.E.M.” value is 0.37 ± 0.21 and 0.37 ± 0.14.
Take “trans-2-(3-Methyl-3-oxooctyl)-5-oxocyclopentaneheptanoic acid”: the “Relative Potency ± S.E.M.” value in series [2] was determined as 0.43 ± 0.14.
Take `CCCCCC(C)(O)C=C[C@@H]1CCC(=O)[C@H]1CCCCCCC(=O)O` (relative stereo) [trans-2-(3-Hydroxy-3-methyl-1-octenyl)-5-oxocyclopentaneheptanoic acid]: the “Relative Potency ± S.E.M.” value in [2] is on record as 1.07 ± 0.33.
`CCCCCC(O)CC[C@@H]1CCC(=O)[C@H]1CCCCCCC(=O)O` (relative stereo) [trans-2-(3-Hydroxyoctyl)-5-oxocyclopentaneheptanoic acid]: in series [2], the “Relative Potency ± S.E.M.” value is 0.45 ± 0.12 and 0.64 ± 0.20.
In the case of `CCCCC[C@H](O)/C=C/[C@H]1[C@H](O)CC(=O)[C@@H]1C/C=C\CCCC(=O)O` [prostaglandin E2], the stability result in series [1] is on record as “relatively unstable”. The “dehydration of the 11-hydroxy group” value in [1] (under both basic and acidic conditions) is “participates readily in dehydration reactions under both basic and acidic conditions”. Moreover, the “test animals with diarrhea” value with diarrhea (43 mg/kg peroral) is listed as 50%.
As for `O=C(O)CCCCCC[C@@H]1C(=O)CC[C@H]1C=CC(O)CC1CCCCC1` (relative stereo) [trans-2-(4-Cyclohexyl-3-hydroxy-1-butenyl)-5-oxocyclopentaneheptanoic acid], the “Relative Potency ± S.E.M.” value in series [2] is 0.13 ± 0.06.
Regarding `CCCCCC(C)(O)CCC1CCC(=O)C1CCCCCCC(=O)O` (single isomer, unassigned; (+)) [(+)-2-(3-Hydroxy-3-methyloctyl)-5-oxocyclopentaneheptanoic a] [(+)-2-(3-Hydroxy-3-methyloctyl)-5-oxocyclopentaneheptanoic acid], in series [2], the “Relative Potency ± S.E.M.” value is 1.02 ± 0.42. For the same compound, the diarrheal effect entry with diarrhea is listed as “do not cause an appreciable diarrheal effect”.
As for `CCCCC[C@H](O)/C=C/[C@H]1[C@H](O)CC(=O)[C@@H]1CCCCCCC(=O)O` [prostaglandin E1], the diarrheal effect result in the series on diarrheal effect is given as “diarrheal effect associated with larger doses”. Moreover, the “effect on gastric acid secretion” value in the series with gastric acid secretion [3] is reported as “inhibit gastric acid secretion”.
On to `CCCCCC(C)(O)CCC1CCC(=O)C1CCCCCCC(=O)O` (stereo not shown) [2-(3-hydroxy-3-methyloctyl)-5-oxocyclopentaneheptanoic acid], for which the “% Inhibition of ulcer formation” value in [4] (7.5 mg/kg p.o.) was 24%; in series [4] (15 mg/kg p.o.), 48%; in [4] (30 mg/kg p.o.), 78%; in series [2] (0.075 mg/kg p.o., indomethacin 20 mg/kg i.p., 5 hr), 43%; in series [2] (0.15 mg/kg p.o., indomethacin 20 mg/kg i.p., 5 hr), 56%; in [2] (0.30 mg/kg p.o., indomethacin 20 mg/kg i.p., 5 hr) it was 69%. The “Ulcers Formed, Mean ± S.E.M.” value was 4.1 ± 1.0 in series [4] (7.5 mg/kg p.o., n=10); 2.8 ± 0.6 in series [4] (15 mg/kg p.o., n=9); 1.2 ± 0.5 in series [4] (30 mg/kg p.o., n=9); 5.9 ± 0.8 in [2] (0.075 mg/kg p.o., indomethacin 20 mg/kg i.p., 5 hr, n=9, P < 0.01); 4.6 ± 0.6 in series [2] (0.15 mg/kg p.o., indomethacin 20 mg/kg i.p., 5 hr, n=9, P < 0.01); 3.2 ± 0.5 in series [2] (0.30 mg/kg p.o., indomethacin 20 mg/kg i.p., 5 hr, n=9, P < 0.001). Further, the 50% effective dose (ED50) in series [4] (Rattus norvegicus, po, over an 18 hr period) was around 15 mg/kg; in the series on gastric acid secretion [5] it was 4.3 mg/kg; in [2] (setting [7]), 0.11 mg/kg; in [2] (setting [8]), 0.11 mg/kg. Further, the diarrheal effect result in the series on diarrhea is reported as “do not cause an appreciable diarrheal effect”.
For `CCCCC(C)(C)C(O)C=C[C@@H]1CCC(=O)[C@H]1C/C=C\CCCC(=O)O` (relative stereo) [trans,cis-7-[2-(3-Hydroxy-4,4-dimethyl-1-octenyl)-5-oxocyclopentyl]-5-heptenoic acid], the ED50 in the series with gastric acid secretion [5] was around 1 mg/kg; in [2] (setting [8]), around 0.02 mg/kg. Moreover, in series [2], the “Relative Potency ± S.E.M.” value turned out to be 4.8.
For the compound `CCCCCC(O)C=C[C@@H]1CCC(=O)[C@H]1CCCCCCC(=O)O` (relative stereo) [trans-2-(3-Hydroxy-1-octenyl)-5-oxocyclopentaneheptanoic acid], the “Relative Potency ± S.E.M.” value in series [2] is reported as 0.74 ± 0.20.
On to `CCCCCC(C)(O)CCC1CCC(=O)C1CCCCCCC(=O)O` (single isomer, unassigned; (+)) [(+)-2-(3-Hydroxy-3-methyloctyl)-5-oxocyclopentaneheptanoic acid], for which, in [2] (setting [8]), the ED50 stood at 0.11 mg/kg.
In turn, `CCCCCC(C)(O)CCC1CCC(=O)C1CCCCCCC(=O)O` (single isomer, unassigned; (-)) [(-)-2-(3-Hydroxy-3-methyloctyl)-5-oxocyclopentaneheptanoic a] [(-)-2-(3-Hydroxy-3-methyloctyl)-5-oxocyclopentaneheptanoic acid] gave an ED50 for inhibiting indomethacin-induced ulcer in [2] (rat, method of Example 1 (dose in mg/kg there), unit inferred, 300 min) of 0.11 mg/kg. The “Relative Potency ± S.E.M.” value in series [2] amounted to 1.01 ± 0.40. Besides, in the series on diarrhea, the diarrheal effect entry is “do not cause an appreciable diarrheal effect”.
In the case of `COc1ccc2c(c1)c(CC(=O)O)c(C)n2C(=O)c1ccc(Cl)cc1` [indomethacin], the “correlation between dosage and occurrence of ulcers” value was “found a similar correlation in the rat” in series [6] (rat, Lee et al.); “found a correlation between indomethacin dosage and the occurence of ulcers in man” in the series on ulcers.
For the compound `CC(C)[N+](C)(CCOC(=O)C1c2ccccc2Oc2ccccc21)C(C)C` [propantheline bromide, reference compound], the “reduction of the ulcerogenic activity of indomethacin” value in series [6] (rats, Lee et al. 1971, dose relative to usual therapeutic dose) is listed as “proved to be effective but only when administered at does much higher than their usual therapeutic dose”. Further, the “% Inhibition of ulcer formation” value in series [2] (1.5 mg/kg p.o., indomethacin 20 mg/kg i.p., 5 hr) is on record as 36%; in [2] (3.0 mg/kg p.o., indomethacin 20 mg/kg i.p., 5 hr) it was 52%; in series [2] (6.0 mg/kg p.o., indomethacin 20 mg/kg i.p., 5 hr) it was 61%. For the same compound, the “Ulcers Formed, Mean ± S.E.M.” value in series [2] (1.5 mg/kg p.o., indomethacin 20 mg/kg i.p., 5 hr, n=9, P < 0.05) is 6.9 ± 0.9; in series [2] (3.0 mg/kg p.o., indomethacin 20 mg/kg i.p., 5 hr, n=9, P < 0.01) it was 5.0 ± 1.0; in [2] (6.0 mg/kg p.o., indomethacin 20 mg/kg i.p., 5 hr, n=8, P < 0.01), 4.1 ± 0.9. The “times less potent than 2-(3-hydroxy-3-methyloctyl)-5-oxocyclopentaneheptanoic acid” value in [2] (ED50 comparison, p.o., indomethacin-induced ulcers) is given as 27 times. Also, the ED50 in [2] (setting [7]) was 3 mg/kg.

The record behind these values is patent US3937801A, “Reducing the incidence of gastrointestinal side effects during the treatment of inflammatory conditions with antiinflammatory drugs” (priority 1973, dated 1976).
